These results are taken from ChEMBL document CHEMBL4627328, “Synthesis and in vitro evaluation of antimycobacterial and cytotoxic activity of new α,β-unsaturated amide, oxazoline and oxazole derivatives from l-serine” (Bioorg Med Chem Lett, 2020).

In brackets after ≈: the same amount, converted by molar mass. Bounds are passed on as bounds.

The assay has as its system Mycobacterium tuberculosis. Put plainly: Antimycobacterial activity against multidrug resistant Mycobacterium tuberculosis G122 incubated for 5 days by alamar blue based colorimetric assay. It counts as functional. The note with it: G122, 120 h. Background: Resazurin is reduced to fluorescent resorufin, in cell work by metabolically active cells.
In the case of `COC(=O)[C@@H]1COC(/C=C/c2ccc(F)cc2)=N1`, 100 µM (≈ 25 µg/mL) was the least that counted as inhibitory (MIC).

With `COC(=O)c1coc(/C=C/c2ccc(C)cc2)n1`, the MIC – broadly, the least concentration at which growth counts as inhibited – is 25.7 µM (≈ 6.25 µg/mL).

`COC(=O)[C@H](CO)NC(=O)/C=C/c1ccc(C)cc1` registered an MIC above 380 µM.

In the case of `COC(=O)c1coc(/C=C/c2ccc(F)cc2)n1`, the MIC came to 50.5 µM (≈ 12.5 µg/mL).

`COC(=O)[C@H](CO)NC(=O)/C=C/c1ccc(F)cc1`: the MIC is above 374 µM.

The molecule `COC(=O)[C@@H]1COC(/C=C/c2ccc(OC)cc2)=N1` gave an MIC of 47.8 µM (≈ 12.5 µg/mL).

In turn, `COC(=O)[C@H](COC(=O)/C=C/c1ccccc1)NC(=O)/C=C/c1ccccc1` returned an MIC above 264 µM.

Consider `COC(=O)[C@H](CO)NC(=O)/C=C/c1ccccc1`, for which the MIC was above 401 µM.

`COC(=O)[C@@H]1COC(/C=C/c2ccc(C)cc2)=N1` registered an MIC of 50.9 µM (≈ 12.5 µg/mL).

`O=C(/C=C/c1ccc(F)cc1)O/C(=N/C1CCCCC1)NC1CCCCC1` displayed an MIC above 268 µM.

For `COC(=O)[C@H](CO)NC(=O)/C=C/c1ccc(OC)cc1`, the MIC is above 358 µM.

On to `COC(=O)[C@@H]1COC(/C=C/c2ccccc2)=N1`, for which the MIC turned out to be 54.1 µM (≈ 12.5 µg/mL).

`O=C(/C=C/c1ccccc1)O/C(=N/C1CCCCC1)NC1CCCCC1` gave an MIC above 282 µM.

As for `Cc1ccc(/C=C/C(=O)O/C(=N/C2CCCCC2)NC2CCCCC2)cc1`, the MIC is above 271 µM.

Consider `COC(=O)[C@H](COC(=O)/C=C/c1ccc(F)cc1)NC(=O)/C=C/c1ccc(F)cc1`, for which the minimal inhibitory concentration (MIC) is above 241 µM.

Take `COC(=O)[C@H](COC(=O)/C=C/c1ccc(OC)cc1)NC(=O)/C=C/c1ccc(OC)cc1`: the MIC was above 228 µM.

`COC(=O)c1coc(/C=C/c2ccc(OC)cc2)n1` came in with an MIC of 48.2 µM (≈ 12.5 µg/mL).

`COC(=O)[C@H](COC(=O)/C=C/c1ccc(C)cc1)NC(=O)/C=C/c1ccc(C)cc1` had an MIC above 245 µM.

In turn, `COC(=O)c1coc(/C=C/c2ccccc2)n1` had an MIC of 54.5 µM (≈ 12.5 µg/mL).

In turn, `CC[C@@H](CO)NCCN[C@@H](CC)CO` [ETHAMBUTOL] had an MIC above 30.5 µM.

The molecule `C[C@H]1COc2c(N3CCN(C)CC3)c(F)cc3c(=O)c(C(=O)O)cn1c23` [LEVOFLOXACIN] displayed an MIC of 0.54 µM (≈ 0.195 µg/mL).

Consider `CO[C@H]1/C=C/O[C@@]2(C)Oc3c(C)c(O)c4c(O)c(c(/C=N/N5CCN(C)CC5)c(O)c4c3C2=O)NC(=O)/C(C)=C\C=C\[C@H](C)[C@H](O)[C@@H](C)[C@@H](O)[C@@H](C)[C@H](OC(C)=O)[C@@H]1C` [RIFAMPIN], for which 0.23 µM (≈ 0.189 µg/mL) was the least that counted as inhibitory (MIC).
